Tests used:
Experiment in all cases: Greenhouse postemergence herbicidal effect, visual injury after 20-22 d
Assay type in all cases: in vivo
[1] = tested on: velvetleaf (ABUTH, Abutilon theophrasti)
Source text: (§1) Seeds of the desired test plant species were planted in a 90:10% v/v (volume/volume) mixture of PRO-MIX® BX (Premier Tech Horticulture, Quakertown, Pa., USA) and PROFILE® GREENS GRADE™ (Profile Products LLC, Buffalo Grove, Ill., USA) planting mixture, which typically has a pH of 5.2 to 6.2 and an organic matter content of at least 50 percent, in plastic pots with a surface area of 103.2 square centimeters (cm^2). In some aspects, to ensure good germination and healthy plants, a fungicide treatment and/or other chemical or physical treatment was applied. The plants were grown for 7-36 days (d) in a greenhouse with an approximate 14-hour (h) photoperiod which was maintained at about 23° C. during the day and 22° C. during the night. Nutrients and water were added on a regular basis and supplemental lighting was provided with overhead metal halide 1000-Watt lamps as necessary. The plants were employed for testing when they reached the second or third true leaf stage.
(§2) Emulsifiable concentrates of each of each pyridine carboxylate herbicide (Compound A or Compound B) were prepared at 100 grams acid equivalent per liter (g ae/L). The emulsifiable concentrates also included a safener, cloquintocet-mexyl, at 120 grams active ingredient per liter (g ai/L). An aliquot of each emulsifiable concentrate was placed in a 25 mL glass vial and diluted with an aqueous mixture of 1.25% (v/v) ACTIROB® B esterified rapeseed oil (Bayer Crop Science, Research Triangle Park, N.C., USA) or MSO® Concentrate with LECI-TECH® methylated soybean oil (Loveland Products, Loveland, Colo., USA) to obtain concentrated stock solutions at the highest application rate for each herbicide, based upon a 12 milliliter (mL) application volume at a rate of 187 liters per hectare (L/ha). The concentrated stock solutions were further diluted with an aqueous mixture of 1.25% v/v ACTIROB® B or MSO® Concentrate with LECI-TECH® to obtain stock solutions at reduced application rates for each herbicide. Spray solutions of the herbicide combinations (Compound A or Compound B plus PDS inhibitor herbicide) were prepared by adding weighed amounts or aliquots of the PDS inhibitor herbicide to the stock solutions of Compound A or Compound B to form 12-mL spray solutions in two- or three-way combinations.
(§3) The spray solutions were applied to the plant material with an overhead Mandel track sprayer equipped with 8002E nozzles calibrated to deliver 187 L/ha over an application area of 0.503 square meters (m^2) at a spray height of 18 inches ([…] centimeters (cm)) above the average plant canopy. Control plants were sprayed in the same manner with the solvent blank. All pyridine carboxylate herbicide (component a) application rates are given as “g ae/ha” and all PDS inhibitor herbicide (component b) application rates are given as “g ai/ha.”
(§4) The treated plants and control plants were placed in a greenhouse as described above and watered by sub-irrigation to prevent wash-off of the test compounds. After 20-22 d, the condition of the test plants as compared with that of the control plants was determined visually and scored on a scale of 0 to 100 percent where 0 corresponds to no injury and 100 corresponds to complete kill.

[2] = tested on: Italian ryegrass (LOLMU, Lolium multiflorum.); details: Table 4
Source text: as §1, §2, §3, §4

[3] = tested on: giant foxtail (SETFA, Setaria faberi); details: Table 4
Source text: as §1, §2, §3, §4

[4] = tested on: wild pansy (VIOTR, Viola tricolor)
Source text: as §1, §2, §3, §4

[5] = tested on: wild buckwheat (POLCO, Polygonum convolvulus); details: for visual injury: Table 1
Source text: as §1, §2, §3, §4

[6] = tested on: Russian thistle (SASKR, Salsola kali); details: for visual injury: Table 1
Source text: as §1, §2, §3, §4

[7] = tested on: soybean (GLXMA=Glycine max); details: Table 4
Source text: as §1, §2, §3, §4

[8] = tested on: large crabgrass (DIGSA, Digitaria sanguinalis); details: Table 4
Source text: as §1, §2, §3, §4

[9] = tested on: wild mustard (SINAR, Sinapis arvensis); details: for visual injury: Table 1
Source text: as §1, §2, §3, §4

[10] = tested on: spring rape (BRSNN, Brassica napus)
Source text: as §1, §2, §3, §4

[11] = tested on: common rice (ORYSA, Oryza sativa); details: Table 4
Source text: as §1, §2, §3, §4

[12] = tested on: kochia (KCHSC, Kochia scoparia); details: for visual injury: Table 1
Source text: as §1, §2, §3, §4

N#CCOC(=O)c1nc(-c2ccc3cc[nH]c3c2F)c(F)c(N)c1Cl [Compound A, cyanomethyl 4-amino-3-chloro-5-fluoro-6-(7-fluoro-1H-indol-6-yl)pyridine-2-carboxylate]
visual injury Obs ([1]; 7.5 g/ha, Table 4): 68% | visual injury Obs ([1]; 7.5 g/ha, Table 5): 40% | visual injury Obs ([1]; 7.5 g/ha, Table 6): 40% | visual injury Obs ([1]; 10 g/ha, Table 4): 78% | visual injury Obs ([1]; 10 g/ha, Table 5): 48% | visual injury Obs ([1]; 10 g/ha, Table 6): 48% | visual injury Obs ([2]; 7.5 g/ha): 0% | visual injury Obs ([2]; 10 g/ha): 0% | visual injury Obs ([3]; 7.5 g/ha): 70% | visual injury Obs ([3]; 10 g/ha): 70% | visual injury Obs ([4]; 7.5 g/ha, Table 4): 10% | visual injury Obs ([4]; 7.5 g/ha, Table 5): 3% | visual injury Obs ([4]; 7.5 g/ha, Table 6): 3% | visual injury Obs ([4]; 10 g/ha, Table 4): 18% | visual injury Obs ([4]; 10 g/ha, Table 5): 3% | visual injury Obs ([4]; 10 g/ha, Table 6): 3% | visual injury ([5]; 7.5 g/ha): 78% | visual injury Obs ([5]; 7.5 g/ha, Table 2): 70% | visual injury Obs ([5]; 7.5 g/ha, Table 3): 88% | visual injury Obs ([5]; 7.5 g/ha, Table 5): 68% | visual injury Obs ([5]; 7.5 g/ha, Table 6): 68% | visual injury Obs ([5]; 7.5 g/ha, Table 7): 60% | visual injury Obs ([5]; 7.5 g/ha, Table 8): 63% | visual injury ([5]; 10 g/ha): 93% | visual injury Obs ([5]; 10 g/ha, Table 2): 78% | visual injury Obs ([5]; 10 g/ha, Table 3): 96% | visual injury Obs ([5]; 10 g/ha, Table 5): 70% | visual injury Obs ([5]; 10 g/ha, Table 6): 70% | visual injury Obs ([5]; 10 g/ha, Table 7): 70% | visual injury Obs ([5]; 10 g/ha, Table 8): 60% | visual injury Obs ([5]; 15 g/ha, Table 8): 63% | visual injury ([6]; 7.5 g/ha): 60% | visual injury Obs ([6]; 7.5 g/ha, Table 2): 45% | visual injury Obs ([6]; 7.5 g/ha, Table 3): 38% | visual injury Obs ([6]; 7.5 g/ha, Table 8): 55% | visual injury ([6]; 10 g/ha): 63% | visual injury Obs ([6]; 10 g/ha, Table 2): 60% | visual injury Obs ([6]; 10 g/ha, Table 3): 63% | visual injury Obs ([6]; 10 g/ha, Table 8): 58% | visual injury Obs ([6]; 15 g/ha, Table 8): 65% | visual injury Obs ([7]; 7.5 g/ha): 93% | visual injury Obs ([7]; 10 g/ha): 95% | visual injury Obs ([8]; 7.5 g/ha): 45% | visual injury Obs ([8]; 10 g/ha): 25% | visual injury ([9]; 7.5 g/ha): 88% | visual injury Obs ([9]; 7.5 g/ha, Table 2): 88% | visual injury Obs ([9]; 7.5 g/ha, Table 3): 85% | visual injury Obs ([9]; 7.5 g/ha, Table 7): 85% | visual injury ([9]; 10 g/ha): 90% | visual injury Obs ([9]; 10 g/ha, Table 2): 92% | visual injury Obs ([9]; 10 g/ha, Table 3): 90% | visual injury Obs ([9]; 10 g/ha, Table 7): 88% | visual injury Obs ([10]; 7.5 g/ha, Table 2): 55% | visual injury Obs ([10]; 7.5 g/ha, Table 3): 55% | visual injury Obs ([10]; 7.5 g/ha, Table 4): 73% | visual injury Obs ([10]; 10 g/ha, Table 2): 60% | visual injury Obs ([10]; 10 g/ha, Table 3): 70% | visual injury Obs ([10]; 10 g/ha, Table 4): 83% | visual injury Obs ([11]; 7.5 g/ha): 13% | visual injury Obs ([11]; 10 g/ha): 10% | visual injury ([12]; 7.5 g/ha): 63% | visual injury Obs ([12]; 7.5 g/ha, Table 2): 50% | visual injury Obs ([12]; 7.5 g/ha, Table 5): 63% | visual injury Obs ([12]; 7.5 g/ha, Table 6): 63% | visual injury Obs ([12]; 7.5 g/ha, Table 7): 65% | visual injury Obs ([12]; 7.5 g/ha, Table 8): 70% | visual injury ([12]; 10 g/ha): 63% | visual injury Obs ([12]; 10 g/ha, Table 2): 58% | visual injury Obs ([12]; 10 g/ha, Table 5): 65% | visual injury Obs ([12]; 10 g/ha, Table 6): 65% | visual injury Obs ([12]; 10 g/ha, Table 7): 70% | visual injury Obs ([12]; 10 g/ha, Table 8): 70% | visual injury Obs ([12]; 15 g/ha, Table 8): 70%
